Here are results for one molecule from article PMC10059083, “Design, Synthesis, and Biological Evaluation of Novel Hydroxamic Acid-Based Organoselenium Hybrids” (Pharmaceuticals, 2023).

One test concerns WI-38 cells. Kind of test: MTT cytotoxicity assay, normal lung fibroblast WI-38 cells. In kind it is cell-based. As to conditions: Homo sapiens, WI-38, 24 h, read-out: WI38 IC50. An excerpt: Recently, OSe agents have attracted interest due to their potential chemoprotective and antitumor properties. […] Therefore, we estimated the OSe agents’ antiproliferative activities against different cancer cells, i.e., MCF-7 and HepG2 cells and healthy lung fibroblast WI-38 cells, using the MTT assay. The drug doxorubicin was employed as the standard. The corresponding therapeutic indices (TI) are described as the proportion of the WI38 cells IC50 to the IC50 of the cancer cell (e.g., MCF-7 and HepG2) (Table 1).
The products’ anticancer activity was examined using the MTT assay against breast (MCF-7) carcinoma cells, liver (HepG2), and normal WI-38 cells, following the previously reported method. Experimental details can be found in the Supplementary Materials.
1.1. The biological assays
1.1.1. The anticancer activity
The breast adenocarcinoma (MCF-7), Hepatocellular carcinoma (HEPG-2), and normal fibroblast (WI-38) cells were obtained from ATCC via Holding company for biological products and vaccines (VACSERA), Cairo, Egypt. The reagents […] medium, MTT, DMSO, and fetal bovine serum was obtained from Sigma Aldrich. Dulbecco’s modified Eagle’s medium was used as the culture medium for the cells, and the cytotoxicity was evaluated using the reported MTT assay. Doxorubicin was used as the positive reference, and the IC50 values were obtained from the corresponding dose-response curve.
This colorimetric assay is based on converting the yellow tetrazolium bromide (MTT) to a purple formazan derivative by mitochondrial succinate dehydrogenase in viable cells. Cell lines were cultured in […] medium with 10% fetal bovine serum. Antibiotics added were 100 units/ml penicillin and 100µg/ml streptomycin at 37 C in a 5% Co2 incubator. The cell lines were seeded in a 96-well plate at a density of 1.0x10^4 cells/well. at 37 C for 48 h under 5% Co2. After incubation, the cells were treated with different concentrations of compounds and incubated for 13 […]
Finally, dimethyl sulfoxide (DMSO) in the volume of 100 µl is added to each well to dissolve the purple formazan formed. The colorimetric assay is measured and recorded at an absorbance of 570 […]
The percentage of the relative cell viability was calculated as (A570 of treated samples/A570 of the untreated sample) X 100. […]
(In general: Tetrazolium dyes change colour on reduction, which living cells bring about.)

In a further test the test system is S. aureus. Kind of test: MIC by microdilution, S. aureus. As to conditions: Staphylococcus aureus; microdilution method. In kind it is cell-based. An excerpt: (§1) The encouraging antitumor properties of the OSe compounds motivated us to evaluate their corresponding antimicrobial activities against the C. albicans fungal strain, S. aureus Gram-positive bacteria, and E. coli Gram-negative bacteria. Therefore, we applied the agar diffusion and minimum inhibitory concentration (MIC) methods using clotrimazole antifungal and ampicillin antibacterial drugs as standards.
(§2) The products’ antimicrobial properties were examined according to the previously reported method, via agar well diffusion assay against E. coli, S. aureus, and C. albicans. A microdilution method was also used to record MICs (M), following the previously reported procedure. Experimental details can be found in the Supplementary Materials.
(§3) Briefly, a concentration of 1 mM was prepared for each compound by dissolving in DMSO. Paper discs of standard size […] were sterilized in an autoclave and soaked in 9 µL of the test compounds, and placed in the Petri dishes, which in turn contain a nutrient media (agar 9 g, peptone 5 g, and beef extract 3 g) seeded with the dedicated strain. Incubation lasted for 13 h at 36 0C. […]
On the technique in general: Broth dilution looks for growth in wells or tubes with falling amounts of substance.

The subject of a further test is C. albicans. In words: MIC by microdilution, C. albicans. It counts as cell-based. As to conditions: Candida albicans, read-out: MIC C. albicans.
Source text: as §1, §2, §3

Test [1] can be described thus: DPPH radical scavenging assay. The procedure:
(§4) The antioxidant activities of the OSe compounds were intensively investigated because these are usually the cause of their chemopreventive potency. Their redox activities were evaluated via DPPH and ABTS assays, using ascorbic acid as the standard. We spectrophotometrically measured the antioxidant efficiency of the OSe compounds by their ability to decolorise the DPPH^. and ABTS^. radicals at […] (Figure 2).
(§5) The compounds’ antioxidant properties were assessed by in vitro bioassays using DPPH and ABTS, following the reported method. Details are in the Supplementary Materials.
(§6) Figure 4 Estimation of the OSe compounds’ redox activities via DPPH and ABTS experiments. All tests are mean ± S.D. ABTS experiment: absorbance was followed at 734 nm for OSe compounds (50 µL, 1 mM in MeOH) and ABTS solution (60 µL). DPPH Absorbance was monitored at 517 nm for OSe compounds (200 µL, 1 mM in MeOH) and DPPH (400 µL) after 30 min. […]
1.1.3. The antioxidant activity
1.1.3.1. The DPPH bioassay
The hydrogen atom or electron donation ability of the corresponding compounds was measured by estimating the bleaching of the purple color of a methanolic solution of DPPH [5]. This spectrophotometric assay uses stable DPPH. reagent. The sample was prepared by adding […] of the OSe compounds (1 mM in methanol) to […] DPPH in methanol. After 30 min of incubation in the dark, the absorbance was read against a blank at […]. Ascorbic acid (vitamin C) and ebselen were used as standard antioxidants (positive control). A blank sample was run without DPPH. A negative control sample was run using methanol instead of the sample. The radical scavenging activity was calculated using the following equation:
Inhibition%= (Ablank-Asample)/(Ablank)*100. […]
(The DPPH test is a chemical assay of radical scavenging.)

Test [2] can be described thus: ABTS radical scavenging assay. How it is done:
as §4, §5, §6
1.1.3.2. The ABTS bioassay
The antioxidant activity of the investigated compounds was assessed using 2,2’-azino-bis(3-ethylbenzothiazoline-6-sulphonic acid (ABTS) method. The radical cation derived from ABTS was prepared by the reaction of 60 mM ABTS solution with 0.3 M manganese dioxide solution in 0.1M phosphate buffer, pH 7. Then, the mixture was shaken, centrifuged, filtered, and the absorbance (Acontrol ) of […]
the resulting green-blue solution (ABTS radical solution) was measured at wavelength 734 nm. Then, […] of 1 mg/ml test compound in phosphate-buffered methanol was added. The absorbance (Atest) was measured. The reduction in color intensity was expressed as % inhibition. The % inhibition for each […]
compound is calculated from the following equation
Inhibition% = (Acontrol-Asample)/(Acontrol)*100
Ascorbic acid (vitamin C) was used as a standard antioxidant (positive control). A blank sample was run […]
without ABTS and using MeOH/phosphate buffer (1:1) instead of the sample. A negative control sample […]
was run with MeOH/phosphate buffer (1:1) instead of a tested compound.

The structures appear in SMILES notation. ≈ marks a conversion by molar mass, not a printed value. Where “and” joins values, the source holds several entries; their conditions need not be identical. Equal entries are not always repeated.

The IC50 is the concentration needed to halve the response being measured. For orientation: MIC means the lowest concentration found to suppress growth. In the case of `Nc1ccc([Se]CC(=O)NOCc2ccccc2)cc1` [Compound 8, 2-((4-Aminophenyl)selanyl)-N-(benzyloxy)acetamide], the IC50 was found to be 27.4 ± 2.1 µM with WI-38 cells; 23.67 ± 0.21 µM in test [1] (concentration causing 50% decrease in absorbance, DPPH assay); 27.24 ± 0.2 µM in test [2] (concentration causing 50% decrease in absorbance, ABTS assay). Also, the MIC against S. aureus and with C. albicans was 4 µM (≈ 1.34 µg/mL) each time. For the same molecule, in test [1] (compounds 200 µL, 1 mM in MeOH, DPPH 400 µL, 30 min, absorbance at 517 nm), the “antioxidant (scavenging) activity in the DPPH assay” value was 85.1% and 92.3%. Also, the “antioxidant (scavenging) activity in the ABTS assay” value in test [2] (compounds 50 µL, 1 mM in MeOH, ABTS solution 60 µL, absorbance at 734 nm) came to 73.9%.
